Results from ChEMBL document CHEMBL1132877, “Novel alpha-glucosidase inhibitors with a tetrachlorophthalimide skeleton” (Bioorg Med Chem Lett, 2000).

How the values were obtained:
[1] = Inhibition of Alpha-glucosidase activity.
[2] = Compound was evaluated for binding affinity towards Alpha-glucosidase analyzed by the surface plasma resonance (SPR) method
[3] = Compound was tested for the inhibition of Alpha-glucosidase
[4] = Inhibitory effect on Alpha-glucosidase activity

Row | IC50 [1] | Ka [2] | IC50 [3] | IC50 [4] | SMILES
1 | > 500 µM | – | – | – | O=C1c2ccccc2C(=O)N1CCCc1ccccc1
2 | > 500 µM | – | – | – | O=C1c2ccccc2C(=O)N1CCc1ccccc1
3 | 25.9 µM | – | – | – | O=C1c2cccc([N+](=O)[O-])c2C(=O)N1c1ccccc1
4 | 47.6 µM | 210000 M⁻¹ | – | – | OC[C@H]1NC[C@H](O)[C@@H](O)[C@@H]1O [DUVOGLUSTAT]
5 | 2.6 µM | 140000 M⁻¹ | – | 17.9 µM | O=C1c2c(Cl)c(Cl)c(Cl)c(Cl)c2C(=O)N1c1ccccc1
6 | > 500 µM | – | – | – | Nc1ccc2c(c1)C(=O)N(c1ccccc1)C2=O
7 | > 500 µM | – | – | – | O=C1c2cccc(O)c2C(=O)N1c1ccccc1
8 | 4.5 µM | 33000 M⁻¹ | – | – | O=C1c2c(Cl)c(Cl)c(Cl)c(Cl)c2C(=O)N1CCCc1ccccc1
9 | 3.5 µM | 15000 M⁻¹ | – | – | O=C1c2c(Cl)c(Cl)c(Cl)c(Cl)c2C(=O)N1CCCCCc1ccccc1
10 | > 500 µM | – | – | – | O=C1c2ccccc2C(=O)N1Cc1ccccc1

More lines, now with the values behind:

Row | SMILES | IC50 [1] | Ka [2] | IC50 [3] | IC50 [4]
11 | O=C1c2ccc(O)cc2C(=O)N1c1ccccc1 | > 500 µM | – | – | –
12 | O=C1c2c(Cl)c(Cl)c(Cl)c(Cl)c2C(=O)N1CCCCc1ccccc1 | – | 22000 M⁻¹ | 2 µM | –
13 | O=C1c2ccccc2C(=O)N1c1ccccc1 [N-PHENYL-PHTHALIMIDE] | > 500 µM | – | – | –
14 | O=C1c2c(Cl)c(Cl)c(Cl)c(Cl)c2C(=O)N1CCCCCCc1ccccc1 | 7 µM | – | – | –
15 | O=C1c2c(Cl)c(Cl)c(Cl)c(Cl)c2C(=O)N1CCc1ccccc1 | 6 µM | 25000 M⁻¹ | – | –
16 | O=C1c2c(Cl)c(Cl)c(Cl)c(Cl)c2C(=O)N1Cc1ccccc1 | 10.9 µM | 15000 M⁻¹ | – | –
17 | O=C1c2ccc([N+](=O)[O-])cc2C(=O)N1c1ccccc1 | 23.7 µM | – | – | –
18 | Nc1cccc2c1C(=O)N(c1ccccc1)C2=O | > 500 µM | – | – | –
